Source: PMC6131205, “Controlling the regioselectivity and stereospecificity of FAD-dependent polyamine oxidases with the use of amine-attached guide molecules as conformational modulators” (Bioscience Reports, 2018)

Key:
[1] = system: amine oxidases in rat liver homogenates; assay: Degradation in rat liver supernatant; format: in vitro ADME; details: 20 μM MDL 72527, 5 min preincubation
Method: A Wistar rat liver was frozen in liquid nitrogen. The liver was homogenized (1+3 w/v) with Teflon potter in buffer containing 25 mM Tris/HCl pH 7.4, 1 mM DTT and 0.1 mM EDTA. Resulting homogenate was centrifuged at 12000×g for 30 min at +4°C. Supernatant was divided into two portions and treated as follows: (A) incubated for 5 min at +37°C in a water bath, (B) supplemented with 20 μM MDL 72527 and incubated for 5 min at +37°C in a water bath to inactivate APAO and SMOX. A 20-μl aliquot of supernatant A or B was added in 100 mM Glycine-NaOH pH 9.5, 5 mM DTT with or without 100 μM of studied drug in a total volume of 180 μl. After 10-min incubation at +37°C, 20 μl of 50% sulphosalicylic acid (SSA) containing 100 μM diaminoheptane (DAH) was added to the reaction mixture. The samples were assayed with HPLC as described in [30].

Fms1 = Fms1 (Saccharomyces cerevisiae, UniProt P50264); assay: Substrate kinetics with recombinant Fms1 (HPLC of reaction products);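 further: recombinant polyamine oxidases incubated with substrate, product amines (putrescine, 1,3-diaminopropane or butane-1,3-diamine) quantified by HPLC after post-column o-phthalaldehyde derivatization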
human recombinant APAO = target: T1, human recombinant APAO (Homo sapiens, UniProt Q6QHF9); details: cited from earlier work
T1 construct: made in house

SMOX = SMOX (Homo sapiens, UniProt Q9NWM0); parameters: made in house; method as in PMID 17901051, PMID 16354669; details: cited from earlier work
SMOX, sequence (Q9NWM0 whole entry): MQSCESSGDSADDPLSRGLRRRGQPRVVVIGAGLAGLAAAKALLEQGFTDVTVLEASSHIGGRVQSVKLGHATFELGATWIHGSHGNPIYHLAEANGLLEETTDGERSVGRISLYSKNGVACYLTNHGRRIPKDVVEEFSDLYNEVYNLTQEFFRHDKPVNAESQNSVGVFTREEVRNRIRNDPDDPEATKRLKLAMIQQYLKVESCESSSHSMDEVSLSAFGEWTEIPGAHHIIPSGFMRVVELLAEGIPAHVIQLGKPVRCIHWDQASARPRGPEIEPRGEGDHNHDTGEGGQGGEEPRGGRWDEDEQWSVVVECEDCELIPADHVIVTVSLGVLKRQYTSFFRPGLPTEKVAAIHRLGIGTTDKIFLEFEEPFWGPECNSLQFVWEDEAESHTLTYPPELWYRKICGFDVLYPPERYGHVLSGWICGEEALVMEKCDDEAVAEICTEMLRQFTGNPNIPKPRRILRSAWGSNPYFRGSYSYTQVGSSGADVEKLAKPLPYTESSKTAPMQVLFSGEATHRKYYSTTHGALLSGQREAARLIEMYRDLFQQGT

T1 sequence (Q6QHF9 whole entry): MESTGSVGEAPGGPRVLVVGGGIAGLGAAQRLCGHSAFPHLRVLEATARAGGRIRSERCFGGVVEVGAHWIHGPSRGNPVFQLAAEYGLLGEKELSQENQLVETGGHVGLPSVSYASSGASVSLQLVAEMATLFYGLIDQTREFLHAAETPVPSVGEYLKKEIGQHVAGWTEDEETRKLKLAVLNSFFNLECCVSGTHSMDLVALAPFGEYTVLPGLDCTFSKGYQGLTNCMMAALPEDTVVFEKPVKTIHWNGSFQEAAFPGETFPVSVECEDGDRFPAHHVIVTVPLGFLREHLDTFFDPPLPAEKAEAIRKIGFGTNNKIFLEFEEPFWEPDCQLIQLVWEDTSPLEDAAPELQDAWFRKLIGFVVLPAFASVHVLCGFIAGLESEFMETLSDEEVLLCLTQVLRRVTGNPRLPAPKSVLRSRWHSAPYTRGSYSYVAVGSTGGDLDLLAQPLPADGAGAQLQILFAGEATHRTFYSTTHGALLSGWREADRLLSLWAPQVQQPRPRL
Fms1, sequence (P50264 whole entry): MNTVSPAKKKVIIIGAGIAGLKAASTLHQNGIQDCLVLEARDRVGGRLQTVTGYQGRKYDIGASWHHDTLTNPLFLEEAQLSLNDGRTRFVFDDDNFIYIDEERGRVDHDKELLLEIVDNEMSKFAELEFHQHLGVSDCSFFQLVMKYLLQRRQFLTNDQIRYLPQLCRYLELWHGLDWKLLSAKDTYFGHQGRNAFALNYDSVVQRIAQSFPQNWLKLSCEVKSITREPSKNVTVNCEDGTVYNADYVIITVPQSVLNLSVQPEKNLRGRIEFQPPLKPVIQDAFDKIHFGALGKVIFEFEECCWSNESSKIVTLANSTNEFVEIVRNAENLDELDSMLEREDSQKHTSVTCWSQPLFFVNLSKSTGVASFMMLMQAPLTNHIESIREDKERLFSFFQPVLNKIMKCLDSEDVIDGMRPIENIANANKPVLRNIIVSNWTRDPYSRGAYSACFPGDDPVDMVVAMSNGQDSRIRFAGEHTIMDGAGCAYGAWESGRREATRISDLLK

Row | SMILES | inhibition of analogue degradation in rat liver supernatant [1] | Specificity constant ratio SS/RR (Fms1; Fms1, (S,S)-Me2Spm vs (R,R)-Me2Spm) | Specificity constant ratio SS/Spm (Fms1; Fms1, (S,S)-Me2Spm vs Spm) | Specificity constant ratio SS/RR (human recombinant APAO; (S,S)-Me2Spm vs (R,R)-Me2Spm) | Specificity constant ratio SS/Spm (human recombinant APAO; (S,S)-Me2Spm vs Spm) | Specificity constant ratio SS/RR (SMOX; (S,S)-Me2Spm vs (R,R)-Me2Spm) | Specificity constant ratio SS/Spm (SMOX; (S,S)-Me2Spm vs Spm)
1 | C=C=CCNCCCCNCC=C=C [MDL72527] | Complete inhibition |  |  |  |  |  | 
2 | CC(N)CCNCCCCNCCC(C)N [(S,S)-Me2Spm, 2,13-diamino-5,10-diazatetradecane] |  | 3.9 | 0.07 | 28 | 7.1 | 454 | 2.1
